Data as given in patent publication US10004730B2, “Small molecules targeting androgen receptor nuclear localization and/or level in prostate cancer” (University of Pittsburgh-Of the Commonwealth System of …, priority 2011, dated 2018).

What was measured:
[1] = system: endogenous AR; assay: Endogenous AR nuclear localization in C4-2 cells by immunofluorescence; format: cell-based; settings: 300 nM, hormone-free
Experimental: (§1) FIGS. 3A and 3B. […] FIG. 3A. […] Localization was assessed by fluorescence microscopy 4 hours after treatment. FIG. 3B.
(§2) FIGS. 6A, 6B, 6C and 6D. FIG. 6A. Structures of compounds SID 14730725 (3-(4-Ethoxy-phenyl)-6,7-dihydro-5H-pyrrolo[1,2-a]imidazole), SID 14742211 (3-(4-Chloro-phenyl)-6,7-dihydro-5H-pyrrolo[1,2-a]imidazole) and SID 3712502 (2-[(3,5-dimethyl-1,2-oxazol-4-yl)methylsulfanyl]-1-[4-(2,3-dimethylphenyl)piperazin-1-yl]ethanone). FIG. 6B. Effect of SID 14730725 and SID 3712502 at indicated concentrations (uM) on nuclear localization of AR in castration-resistant C4-2 prostate cancer cells cultured in complete RPMI media with 10% FBS. C4-2 cells were transfected with GFP-AR and subcellular localization of GFP-AR was determined after overnight treatment using fluorescent microscopy. FIG. 6C. Quantitative analysis of results in FIG. 6B. The percent of transfected cells displaying predominant nuclear localization of GFP-AR at in the presence of various concentrations of SID 14730725 and SID 3712502 were determined. FIG. 6D. SID 14730725 inhibited endogenous AR nuclear localization in C4-2 cells. Endogenous AR was detected by immunofluorescent staining using AR antibody N-20 (Santa Cruz Biotechnology). Nuclei were stained with Hoechst.
(§3) Hsp90 plays an important role in ligand-induced AR nuclear translocation. […]

[2] = system: castration resistant C4-2 xenograft tumors; assay: C4-2 xenograft tumors in castrated SCID mice; format: in vivo
Experimental: FIGS. 9A and 9B. FIG. 9A. SID 14730725 inhibits the growth of castration resistant C4-2 xenograft tumors. C4-2 tumors were established by sc injection of 1×10^6 cells resuspended in 0.25 ml RPMI complete media mixed with 0.25 ml of Matrigel into young adult male SCID mice. SCID mice were castrated and randomized when C4-2 tumor volume reach ˜200 ul. Mice received s.c. delivery of SID 14730725 (50 mg/Kg body weight) or vehicle control (corn oil) every other day for 2 weeks, beginning 4 days after castration. Each group consisted of 7 mice. Tumor volumes were measured using micro-calipers and calculated using the formula (length×width^2)/2. FIG. 9B. Body weight of animals was measured every other day. Bars represent the mean±SEM; **p<0.01; Red lines represent data from the animals treated with SID 14730725.

[3] = system: C4-2 cells; assay: Cell survival, crystal violet staining, C4-2; format: cell-based; settings: 48 hrs
Experimental: (§4) FIGS. 8A and 8B. Effect of SID 14730725 and SID 3712502 on survival of PC3 (FIG. 8A) and C4-2 cells (FIG. 8B). PC3 or C4-2 cells were plated in 12-well plates at 2,500 cell per well in RPMI 1640 complete medium. After 24 hrs, the cells were treated with SID 14730725 or SID 3712502 at the indicated concentrations for 48 hrs. The wells were washed with PBS thrice and fixed in 0.5% crystal Violet in methanol. C=control; treated with vehicle DMSO.

[4] = target: T1, GFP-AR (Homo sapiens, UniProt P10275); assay: Localization of transiently transfected GFP-AR by fluorescence microscopy; format: cell-based; settings: for GFP-AR localization: 1 nM
T1 construct: expressed in transfected cells; also PC3 and LNCaP (transient)
T1 sequence (P10275 1-920): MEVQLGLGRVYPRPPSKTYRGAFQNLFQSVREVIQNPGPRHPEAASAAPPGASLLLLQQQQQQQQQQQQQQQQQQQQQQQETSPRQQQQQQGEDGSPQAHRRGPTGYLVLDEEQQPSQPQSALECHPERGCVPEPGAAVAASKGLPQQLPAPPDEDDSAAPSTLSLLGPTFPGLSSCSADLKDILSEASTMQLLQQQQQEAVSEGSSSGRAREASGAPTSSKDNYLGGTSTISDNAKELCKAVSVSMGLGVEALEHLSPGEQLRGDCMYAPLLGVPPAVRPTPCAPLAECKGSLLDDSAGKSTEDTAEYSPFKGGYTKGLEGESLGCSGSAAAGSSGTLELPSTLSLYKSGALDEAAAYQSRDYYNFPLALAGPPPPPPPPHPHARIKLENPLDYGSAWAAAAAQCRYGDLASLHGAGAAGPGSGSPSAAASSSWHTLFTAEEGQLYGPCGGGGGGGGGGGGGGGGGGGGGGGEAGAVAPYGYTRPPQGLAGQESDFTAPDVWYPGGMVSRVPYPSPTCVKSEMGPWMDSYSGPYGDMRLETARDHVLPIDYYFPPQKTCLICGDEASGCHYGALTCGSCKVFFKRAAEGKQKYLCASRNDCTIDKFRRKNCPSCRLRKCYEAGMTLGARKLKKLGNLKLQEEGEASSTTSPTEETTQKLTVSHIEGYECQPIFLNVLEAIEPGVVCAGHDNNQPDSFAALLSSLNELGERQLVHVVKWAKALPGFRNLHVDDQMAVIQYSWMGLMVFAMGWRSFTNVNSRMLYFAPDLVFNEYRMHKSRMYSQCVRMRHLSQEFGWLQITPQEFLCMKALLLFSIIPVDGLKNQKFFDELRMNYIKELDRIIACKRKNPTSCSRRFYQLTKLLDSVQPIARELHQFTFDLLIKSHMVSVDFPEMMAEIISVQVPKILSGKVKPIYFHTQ
Experimental: FIGS. 2A and 2B. Localization of GFP-AR in AR-negative PC3, androgen-sensitive LNCaP, and CRPC C4-2 cells. […] PC3, LNCaP, and C4-2 cells were transfected with GFP-AR and localization was assessed in ligand-free conditions or in the presence of mibolerone by fluorescence microscopy within 24 hours of transfection. The results in FIG. 2B are from five transfections for each cell line in the absence of androgen. At least 50 cells were counted after each transfection. Error bars represent ±SEM.
as §1
FIGS. 6A, 6B, 6C and 6D. FIG. 6A. […] FIG. 6B. […] C4-2 cells were transfected with GFP-AR and subcellular localization of GFP-AR was determined after overnight treatment using fluorescent microscopy. FIG. 6C. Quantitative analysis of results in FIG. 6B. […] FIG. 6D. […] Endogenous AR was detected by immunofluorescent staining using AR antibody N-20 (Santa Cruz Biotechnology). Nuclei were stained with Hoechst.
A prerequisite for AR transcriptional activity is its nuclear localization. To determine whether the subcellular localization of AR was altered during the progression to castration-resistance, AR-negative PC3 prostate cancer cells, androgen-sensitive LNCaP cells and castration-resistant C4-2 cells were transfected with AR tagged to green fluorescent protein (GFP) and localization was assessed by fluorescence microscopy in hormone-free conditions.
Hsp90 plays an important role in ligand-induced AR nuclear translocation. […] To determine if the effect of hsp90 inhibition on endogenous AR in C4-2 cells was similar to its effect on transfected GFP-AR, immunofluorescence experiments were performed.

[5] = target: T2, GFP-ER (Homo sapiens, UniProt P03372); assay: GFP-ER nuclear localization in transfected C4-2 cells; format: cell-based; settings: 24 hours
T2 construct: expressed in transfected cells; host or cells: C4-2
Experimental: (§5) FIG. 7. The effect of SID 14730725 and SID 3712502 on nuclear localization of GFP-ER (Top panel) and GFP-GR (Bottom panel) in C4-2 cells. C4-2 cells were transfected with GFP-ER or GFP-GR overnight. The following day the cells were treated with different concentrations (uM) of the small molecules. The cells transfected with GFP-GR were co-treated with 0.5 μM Dexamethasone. Cells were imaged 24 hours after the treatment with the small molecules.

[6] = target: T3, GFP-GR (Homo sapiens, UniProt P04150); assay: GFP-GR nuclear localization in transfected C4-2 cells; format: cell-based; settings: co-treated with 0.5 μM Dexamethasone, 24 hours
T3 construct: expressed in transfected cells; host or cells: C4-2
Experimental: as §5

[7] = target: T4, endogenous AR (Homo sapiens, UniProt P10275, T878A); assay: Endogenous AR nuclear localization in C4-2 cells by immunofluorescence; format: cell-based; settings: AR antibody N-20
T4 construct: endogenous in cells; host or cells: C4-2
Experimental: as §1, §2, §3

[8] = system: PC3 cells; assay: Cell survival, crystal violet staining, PC3; format: cell-based; settings: 48 hrs
Experimental: as §4

[9] = target: AR (Homo sapiens, UniProt P10275); settings: reported in earlier studies; cited from earlier work
[10] = target: T1, GFP-AR; assay: GFP-AR localization in stably transfected C4-2-GFP-AR sublines / high throughput screen assay; format: cell-based; settings: 5 uM, 24 hours; C4-2 stably transfected with GFP-AR; charcoal-stripped FBS medium
Experimental: The images were acquired 24 hours after the treatment of docetaxel at 5 uM or vehicle DMSO. C4-2 cells stably transfected with GFP-AR were changed to phenol red-free RPMI with 10% charcoal-stripped FBS medium before the addition of docetaxel. Nuclei of the cells were stained with Hoechst dye. Images were acquired by fluorescent microscopy.
Localization of GFP-AR signal was assessed by fluorescence microscopy overnight after treatment.
The C4-2-GFP-AR subclone was cultured in 384-well plates in complete RPMI media. We used regular complete media in high throughput assay because it contains castration levels of androgens. […] Images of GFP signals and Hoechst signals were acquired into separate channels on a Cellomics ArrayScan® V^TI system. Both nuclear and cytoplasmic GFP signals were quantified with the ArrayScan V^TI, which uses an image-based auto-focus system, and has the capability of imaging up to six excitation and emission channels. […] The Cellomics compartmental analysis algorithm was used to quantify the relative distribution of the GFP-AR between nuclear and cytoplasmic cellular compartments. […] The mask was eroded to reduce cytoplasmic contamination within the nuclear area, and the reduced mask was used to quantify the amount of target channel GFP fluorescence within the nucleus. […]

T2 sequence (P03372 whole entry): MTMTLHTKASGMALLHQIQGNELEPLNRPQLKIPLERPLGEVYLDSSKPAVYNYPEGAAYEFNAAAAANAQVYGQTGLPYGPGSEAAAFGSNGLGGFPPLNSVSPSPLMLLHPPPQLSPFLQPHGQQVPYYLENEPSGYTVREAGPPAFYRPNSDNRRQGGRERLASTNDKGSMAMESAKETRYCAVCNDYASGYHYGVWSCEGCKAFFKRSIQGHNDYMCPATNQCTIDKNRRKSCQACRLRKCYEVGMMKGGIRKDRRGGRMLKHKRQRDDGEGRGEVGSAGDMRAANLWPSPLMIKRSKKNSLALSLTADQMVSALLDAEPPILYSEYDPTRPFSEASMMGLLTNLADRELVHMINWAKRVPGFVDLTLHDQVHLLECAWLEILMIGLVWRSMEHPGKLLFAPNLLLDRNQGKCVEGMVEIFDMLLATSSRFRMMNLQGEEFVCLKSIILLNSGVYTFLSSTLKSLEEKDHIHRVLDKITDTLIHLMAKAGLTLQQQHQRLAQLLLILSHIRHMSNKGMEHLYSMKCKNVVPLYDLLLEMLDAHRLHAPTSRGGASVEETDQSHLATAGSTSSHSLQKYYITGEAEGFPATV
T4 sequence (P10275 whole entry T878A): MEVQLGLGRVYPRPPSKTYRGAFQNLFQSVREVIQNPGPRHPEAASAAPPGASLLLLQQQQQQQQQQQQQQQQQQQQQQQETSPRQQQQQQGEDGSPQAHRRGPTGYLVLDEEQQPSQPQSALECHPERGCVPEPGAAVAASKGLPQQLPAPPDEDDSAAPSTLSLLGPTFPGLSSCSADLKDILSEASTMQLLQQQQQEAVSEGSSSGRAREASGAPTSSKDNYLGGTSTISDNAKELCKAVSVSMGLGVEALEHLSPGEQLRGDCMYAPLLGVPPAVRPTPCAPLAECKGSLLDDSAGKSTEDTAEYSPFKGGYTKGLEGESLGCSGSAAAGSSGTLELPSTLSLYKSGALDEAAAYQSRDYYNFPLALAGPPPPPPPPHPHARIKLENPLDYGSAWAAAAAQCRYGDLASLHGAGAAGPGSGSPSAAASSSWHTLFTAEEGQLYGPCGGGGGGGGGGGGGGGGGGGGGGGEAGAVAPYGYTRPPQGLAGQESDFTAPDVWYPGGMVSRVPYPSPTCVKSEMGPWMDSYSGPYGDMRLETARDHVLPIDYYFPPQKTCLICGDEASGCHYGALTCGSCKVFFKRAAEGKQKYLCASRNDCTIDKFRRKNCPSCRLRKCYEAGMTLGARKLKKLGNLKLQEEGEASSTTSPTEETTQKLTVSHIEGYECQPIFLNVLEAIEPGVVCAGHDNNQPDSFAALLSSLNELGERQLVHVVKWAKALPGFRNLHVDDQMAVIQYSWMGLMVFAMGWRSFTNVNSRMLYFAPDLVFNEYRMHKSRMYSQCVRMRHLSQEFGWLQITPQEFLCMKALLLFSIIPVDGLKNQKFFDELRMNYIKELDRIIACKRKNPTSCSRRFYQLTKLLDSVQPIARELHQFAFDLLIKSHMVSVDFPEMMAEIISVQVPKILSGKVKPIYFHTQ
T3 sequence (P04150 whole entry): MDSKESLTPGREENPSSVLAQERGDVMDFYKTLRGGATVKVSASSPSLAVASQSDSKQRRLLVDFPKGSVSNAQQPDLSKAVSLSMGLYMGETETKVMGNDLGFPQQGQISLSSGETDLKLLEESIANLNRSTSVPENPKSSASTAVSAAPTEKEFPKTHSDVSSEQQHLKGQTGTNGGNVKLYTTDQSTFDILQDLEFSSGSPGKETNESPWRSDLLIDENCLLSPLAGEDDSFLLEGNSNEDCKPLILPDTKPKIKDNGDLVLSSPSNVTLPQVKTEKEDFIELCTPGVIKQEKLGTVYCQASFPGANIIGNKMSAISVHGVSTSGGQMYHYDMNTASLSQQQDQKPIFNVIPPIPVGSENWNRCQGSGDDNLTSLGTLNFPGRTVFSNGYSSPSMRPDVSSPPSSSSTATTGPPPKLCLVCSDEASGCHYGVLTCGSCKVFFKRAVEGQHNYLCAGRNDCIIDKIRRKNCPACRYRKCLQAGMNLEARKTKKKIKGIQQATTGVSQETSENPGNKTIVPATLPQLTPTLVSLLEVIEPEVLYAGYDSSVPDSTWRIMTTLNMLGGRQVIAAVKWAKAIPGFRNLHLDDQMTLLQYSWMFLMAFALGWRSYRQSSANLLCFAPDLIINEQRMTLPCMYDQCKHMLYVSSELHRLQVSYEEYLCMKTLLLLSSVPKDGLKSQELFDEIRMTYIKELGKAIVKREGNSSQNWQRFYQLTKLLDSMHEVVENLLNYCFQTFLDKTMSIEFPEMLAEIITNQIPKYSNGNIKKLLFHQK

C=CCNC1=C2C[C@@H](C)C[C@H](OC)[C@H](O)[C@@H](C)/C=C(\C)[C@H](OC(N)=O)[C@@H](OC)/C=C\C=C(/C)C(=O)NC(=CC1=O)C2=O [17-AAG, reference compound]
endogenous AR nuclear expression [1]: a decrease in nuclear AR expression was observed

CCOc1ccc(-c2cnc3n2CCC3)cc1 [SID 14730725, 3-(4-Ethoxy-phenyl)-6,7-dihydro-5H-pyrrolo[1,2-a]imidazole]
body weight of injected mice ([2]; 50 mg/Kg s.c. every other day): did not affect the body weight | growth of C4-2 xenograft tumor ([2]; 50 mg/Kg s.c. every other day for 2 weeks, castrated SCID mice): able to inhibit the growth of a C4-2 xenograft tumor with statistical significance | cytotoxicity [3]: little or no cytotoxicity | blocking AR nuclear localization, dependence on androgen level ([4]; absence or very low levels of androgens): more effective in blocking AR nuclear localization in the absence or in the presence of very low levels of androgens | GFP-AR nuclear localization ([4]; transfected C4-2 cells, complete RPMI with 10% FBS, overnight treatment): effectively inhibited | localization of GFP-ER [5]: no effect | localization of GFP-GR [6]: no effect | endogenous AR nuclear localization [7]: inhibited | cytotoxicity [8]: little or no cytotoxicity

CC(=O)O[C@@]12CO[C@@H]1C[C@H](O)[C@@]1(C)C(=O)[C@H](O)C3=C(C)[C@@H](OC(=O)[C@H](O)[C@@H](NC(=O)OC(C)(C)C)c4ccccc4)C[C@@](O)([C@@H](OC(=O)c4ccccc4)[C@H]21)C3(C)C [docetaxel]
AR nuclear translocation [9]: can inhibit androgen-dependent AR nuclear translocation | AR nuclear localization in castration-resistant C4-2 cells [10]: no significant effect

C[C@@H]1CC2=CC(=O)CC[C@@H]2[C@H]2CC[C@@]3(C)[C@@H](CC[C@]3(C)O)[C@@H]21 [mibolerone]
GFP-AR localization ([4]; C4-2 cells): induced complete nuclear localization | GFP-AR localization ([4]; LNCaP cells): induced complete nuclear localization | GFP-AR localization ([4]; PC3 cells): induced complete nuclear localization

C[C@@H]1C[C@H]2O[C@@H]2/C=C\C=C\C(=O)Cc2c(Cl)c(O)cc(O)c2C(=O)O1 [radicicol]
nuclear localization of GFP-AR ([4]; C4-2 cells, data not shown): prevented
